Test systems include 786-0; A498; ACHN; CCRF-CEM; DU-145; HCC 2998; HCT-15; HOP-62; Hs-578T; K562; KM12; MCF7; MDA-MB-231; NCI-H226; NCI-H23; PC-3; SK-MEL-2; SNB-19; TK-10; UACC-62.
Holding throughout (test): DTP human tumour cell line panel, 48 h

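How tested: cells in 96-well plates exposed to compound for 48 hours at five concentrations. Here, GI50 denotes the concentration required for 50% inhibition of growth.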 Calls of active or inactive are those of the source. Rule as the data show it: active = GI50 up to about 1.1 µM and inactive = higher.

By GI50 is commonly meant the concentration giving 50% growth inhibition. On to `CN(C)CC1CCCC(CN2CCCCC2)C1=O` (stereo not given), for which the GI50 was 2.74 µM (inactive) in the assay on 786-0; 38.5 µM (inactive) in the assay on A498; 6.58 µM (inactive) with ACHN; 0.762 µM (active) with CCRF-CEM; 18.2 µM (inactive) in the assay on DU-145; 18.5 µM (inactive) in the assay on HCC 2998. Besides, the GI50 is 8.83 µM with HCT-15; > 100 µM (inactive) in the assay on HOP-62; 19.7 µM (inactive) in the assay on Hs-578T; 0.172 µM (active) in the assay with K562; 19.4 µM (inactive) in the assay with KM12; 1.07 µM (active) in the assay on MCF7. For the same molecule, the GI50 with MDA-MB-231 is 15.1 µM (inactive); in the assay with NCI-H226 it was 20.6 µM (inactive); with NCI-H23, 17.9 µM (inactive); with PC-3, 15.6 µM (inactive); in the assay with SK-MEL-2, 15.7 µM (inactive); in the assay on SNB-19, > 88.3 µM (inactive). The GI50 is 8.73 µM (inactive) with TK-10 and 18.3 µM (inactive) in the assay on UACC-62.

Turning to `CCCc1c(O)c(=O)c2c(OC)cc(OC)c3c4c(OC)cc(OC)c5c(=O)c(O)c(CCC)c(c1c23)c54`, the GI50 was 0.676 µM (active) in the assay on 786-0; 0.678 µM (active) in the assay on A498; 0.617 µM (active) in the assay with ACHN; 0.181 µM (active) with CCRF-CEM; 0.37 µM (active) in the assay with DU-145; 1.76 µM (inactive) in the assay with HCC 2998. The GI50 was 0.746 µM in the assay on HCT-15; 0.543 µM (active) in the assay with HOP-62; 0.468 µM (active) in the assay on Hs-578T; 0.195 µM (active) in the assay on K562; 0.458 µM (active) in the assay with KM12; 0.403 µM (active) in the assay with MCF7. In addition, the GI50 was 1.56 µM (inactive) with MDA-MB-231; 1.63 µM (inactive) in the assay with NCI-H226; 0.474 µM (active) in the assay with NCI-H23; 0.443 µM (active) with PC-3; 0.507 µM (active) in the assay with SK-MEL-2; 0.351 µM (active) in the assay on SNB-19. Besides, the GI50 is 1.9 µM (inactive) in the assay on TK-10 and 0.396 µM (active) in the assay with UACC-62.

Turning to `COC(=O)c1ccc(C)cc1CC1Cc2c(C)cccc2C1=O` (stereo not given), the GI50 in the assay on 786-0 is 12.8 µM (inactive); in the assay with A498 it was 4.95 µM (inactive); in the assay with ACHN, 22.2 µM (inactive); in the assay with CCRF-CEM, 7.05 µM (inactive); with DU-145 it was 29.4 µM (inactive); with HCC 2998, 11.1 µM (inactive). The concentration for 50% growth inhibition (GI50) was 3.05 µM in the assay with HCT-15; 13.6 µM (inactive) in the assay with HOP-62; 8.55 µM (inactive) in the assay with Hs-578T; 2.94 µM (inactive) with K562; 3.4 µM (inactive) with KM12; 2.11 µM (inactive) with MCF7. Also, the GI50 with MDA-MB-231 was 2.32 µM (inactive); in the assay with NCI-H226, 13.7 µM (inactive); in the assay with NCI-H23, 12.4 µM (inactive); in the assay with PC-3, 6.5 µM (inactive); in the assay on SK-MEL-2, 5.9 µM (inactive); in the assay with SNB-19, 9.89 µM (inactive). The figures for the GI50 in the assay on TK-10 and in the assay with UACC-62 were 11.5 µM (inactive) and 6.01 µM (inactive), respectively.

Regarding `O=C(c1ccccc1)c1ccc2nc3n(c2c1)C(c1c(Cl)cccc1Cl)SC3` (stereo not given), the GI50 in the assay with 786-0 was 3.86 µM (inactive); with A498, 15.7 µM (inactive); in the assay with ACHN, 7.69 µM (inactive); with CCRF-CEM, 1.27 µM (inactive); in the assay with DU-145, 13.5 µM (inactive); in the assay with HCC 2998 it was 7.05 µM (inactive). The 50% growth inhibitory concentration (GI50) was 3.35 µM in the assay with HCT-15; 6.37 µM (inactive) in the assay on HOP-62; 3.67 µM (inactive) in the assay on Hs-578T; 3.12 µM (inactive) in the assay with K562; 2.87 µM (inactive) in the assay with KM12; 4.09 µM (inactive) with MCF7. Further, the GI50 in the assay with MDA-MB-231 is 18.4 µM (inactive); with NCI-H226, 31.2 µM (inactive); with NCI-H23, 5.66 µM (inactive); in the assay with PC-3 it was 5.41 µM (inactive); in the assay with SK-MEL-2, 8.02 µM (inactive); in the assay with SNB-19, 3.85 µM (inactive). Further, the figures for the GI50 with TK-10 and with UACC-62 were 25.2 µM (inactive) and 4.06 µM (inactive), respectively.

With `COC(=O)[C@H](Cc1ccccc1)NC(=O)c1ccc(CNC(=O)/C=C/c2ccc(OCc3ccccc3)cc2)cc1`, the GI50 with 786-0 is 5.11 µM (inactive); in the assay on A498 it was 2.59 µM (inactive); in the assay with ACHN it was 14.9 µM (inactive); in the assay on CCRF-CEM, 17.4 µM (inactive); in the assay on DU-145 it was 12.4 µM (inactive); in the assay on HCC 2998 it was 24.3 µM (inactive). Moreover, the GI50 in the assay with HCT-15 is 40.1 µM; in the assay with HOP-62, 12.6 µM (inactive); with Hs-578T it was 5.66 µM (inactive); in the assay with K562, 12 µM (inactive); in the assay on KM12, 19.1 µM (inactive); in the assay on MCF7, 29.4 µM (inactive). In addition, the GI50 was 16.5 µM (inactive) in the assay with MDA-MB-231; 21.3 µM (inactive) in the assay with NCI-H226; 14.5 µM (inactive) with NCI-H23; 14.7 µM (inactive) with PC-3; 2.55 µM (inactive) in the assay with SK-MEL-2; 15.7 µM (inactive) in the assay with SNB-19. Also, the GI50 in the assay with TK-10 is 13.5 µM (inactive); in the assay with UACC-62 it was 4.44 µM (inactive).

Take `O=S(=O)(c1ccccc1)[C@H]1[C@@H]2O[C@@H]2C[C@@H]1O`: the GI50 with 786-0, in the assay on A498, with ACHN, in the assay with CCRF-CEM, in the assay with DU-145 and with HCC 2998 was > 100 µM (inactive) each time. In addition, the GI50 was more than 100 µM with HCT-15; > 100 µM (inactive) in the assay with HOP-62; > 100 µM (inactive) in the assay with Hs-578T; > 100 µM (inactive) in the assay on K562; > 100 µM (inactive) in the assay on KM12; > 100 µM (inactive) in the assay with MCF7. In addition, the GI50 with MDA-MB-231, in the assay on NCI-H226, with NCI-H23, in the assay with PC-3, with SK-MEL-2 and in the assay with SNB-19 was > 100 µM (inactive) throughout. Besides, the GI50 in the assay with TK-10 and in the assay with UACC-62 was > 100 µM (inactive) each time.

As to `CCCC/C=C/C/C=C/CCCCCCCCC(=O)OCC1CCCN2CCCCC12` (stereo not given), the GI50 with 786-0 was > 100 µM (inactive); with A498 it was > 100 µM (inactive); in the assay on ACHN, > 100 µM (inactive); with CCRF-CEM, 28.5 µM (inactive); in the assay with DU-145, > 100 µM (inactive); in the assay with HCC 2998, > 100 µM (inactive). For the same molecule, the GI50 in the assay with HCT-15 is more than 100 µM; with HOP-62, > 100 µM (inactive); in the assay with Hs-578T it was > 100 µM (inactive); with K562, > 100 µM (inactive); in the assay with KM12, > 100 µM (inactive); in the assay on MCF7 it was > 100 µM (inactive). In addition, the GI50 in the assay on MDA-MB-231, with NCI-H226, with NCI-H23, with PC-3, with SK-MEL-2 and in the assay with SNB-19 was > 100 µM (inactive) throughout. For the same molecule, the GI50 in the assay with TK-10 was > 100 µM (inactive); with UACC-62, 48.6 µM (inactive).

Regarding `Cc1cc([C@H](C#N)c2nc3ccccc3s2)nc(Cl)n1`, the GI50 with 786-0 was 4.76 µM (inactive); with A498, 15.2 µM (inactive); in the assay with ACHN, 9.25 µM (inactive); in the assay with CCRF-CEM it was 3.82 µM (inactive); with DU-145, 23.7 µM (inactive); with HCC 2998, 4.86 µM (inactive). Moreover, the GI50 with HCT-15 was 3.66 µM; with HOP-62, 4.66 µM (inactive); in the assay on Hs-578T, 4.71 µM (inactive); with K562, 2.75 µM (inactive); in the assay on KM12 it was 2.78 µM (inactive); in the assay with MCF7 it was 4.41 µM (inactive). Further, the GI50 with MDA-MB-231 is 3 µM (inactive); with NCI-H226, 3.46 µM (inactive); in the assay on NCI-H23, 2.78 µM (inactive); in the assay on PC-3, 3.54 µM (inactive); in the assay on SK-MEL-2 it was 4.72 µM (inactive); in the assay on SNB-19 it was 6.7 µM (inactive). Moreover, the values for the GI50 with TK-10 and in the assay on UACC-62 were 4.98 µM (inactive) and 3.65 µM (inactive), respectively.

For the origin of these results see ChEMBL document CHEMBL1201862, “PubChem BioAssay data set” (2004).
